# Experimental data reported in patent US12303474B2, “S-enantiomerically enriched compositions of beta blockers for treating amyotrophic lateral sclerosis” (priority 2013, dated 2025).
# Where two headings read alike, the source gives them in different places.
# Tests used:
# [1] = test system: G93A SOD1 B6SJL hybrid (G93A) model; assay: Body weight and body composition (lean mass, fat mass; NMR scans) in G93A SOD1 transgenic mice; assay type: in vivo; conditions: for Average Δ body weight / Average Δ fat mass / Average Δ lean mass: per day alive after disease onset
# Excerpt: (§1) Transgenic mice over-expressing a high copy number (25 copies) of mutated human SOD1 gene with a G93A point mutation, i.e., B6SJL-TgN [SOD1-G93A]1 Gur (G1H-G93A transgenic mice, JR2726; Hemizygote) (Gurney M E, et al., Science, 264, 1772-1775, 1994) (“G93A SOD1 B6SJL hybrid (G93A) model”), were used.
# […] […] There were 16 mice in the S-oxprenolol group.
# The primary endpoint was survival, humanely defined as the ability of the animal to right itself in 30 seconds after being laid on its side. Secondary endpoints were body weight, body composition, spontaneous activity and food intake. Body weight of the animals was assessed weekly until onset of disease. Additionally, body composition (fat mass and lean body mass) was assessed using NMR scans (EchoMRI-100, Echo Medical Systems, Houston, USA) every 4 days. After onset of disease, body weight and body composition were assessed every two days until the end of the study. All personal handling the animals was strictly blinded to the randomized treatment allocation.
# To study the effect of S-oxprenolol on body weight, body weight was monitored over time.
# To study the effect of the test compounds on lean body mass, lean mass was determined at the end of the study.
# To study the effect of the test compounds on fat mass, the fat mass were determined at the end of the study.
# To study the effect of S-oxprenolol on body weight, body weight was monitored over time. […] The number of all mice in the population is indicated as “n” in at the bottom of FIGS. 20A-20C.
# To study the effect of the test compounds on lean body mass, lean mass was determined at the end of the study. […] The number of all mice in the population is indicated as “n” in at the bottom of FIGS. 20D-20F.
# To study the effect of the test compounds on fat mass, the fat mass were determined at the end of the study. […] The number of all mice in the population is indicated as “n” in at the bottom of FIGS. 20G-20I.
# [2] = test system: G93A SOD1 B6SJL hybrid (G93A) model; assay: Disease progression score (JAX SOP) in G93A SOD1 transgenic mice
# Description: The disease progression score is based on the JAX SOP (Ludolph A C, Bendotti C, Blaugrund E, Hengerer B, Loffler J P, Martin J, Meininger V, Meyer T, Moussaoui S, Robberecht W, Scott S, Silani V, Van Den Berg L H (ENMC Group For The Establishment Of Guidelines For The Conduct Of Preclinical And Proof Of Concept Studies In ALS/MND Models). 2007, which is incorporated by reference).
# [3] = test system: G93A SOD1 B6SJL hybrid (G93A) model; conditions: for HR survival (FIG. 14): all mice; for HR survival (FIG. 16): female mice; for HR survival (FIG. 15): male mice;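 for HR survival (FIG. 14): dosing began after ALS onset in G93A SOD1 mice, with survival as the endpoint, defined humanely as the animal failing to regain upright posture within 30 s when placed sideways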;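 for HR survival (FIG. 16): dosing began after ALS onset in G93A SOD1 mice, with survival as the endpoint, defined humanely as the animal failing to regain upright posture within 30 s when placed sideways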
# Description: To study the effect of S-oxprenolol on survival, survival was monitored over time.
# [4] = test system: G93A SOD1 B6SJL hybrid (G93A) model; conditions: for Heart / gastrocnemius: end of study;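 for HR survival (FIG. 14): dosing began after ALS onset in G93A SOD1 mice, with survival as the endpoint, defined humanely as the animal failing to regain upright posture within 30 s when placed sideways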;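 for HR survival (FIG. 16): dosing began after ALS onset in G93A SOD1 mice, with survival as the endpoint, defined humanely as the animal failing to regain upright posture within 30 s when placed sideways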
# Description: as §1
# To study the effect of the test compounds on skeletal muscle atrophy, the skeletal muscle mass were determined at the end of the study.
# The number of all mice in the population is indicated as “n” in at the bottom of FIGS. 21A-21C.
# The number of all mice in the population is indicated as “n” in at the bottom of FIGS. 20D-20F.
# The number of all mice in the population is indicated as “n” in at the bottom of FIGS. 21G-21I.
# [5] = 20 mg/kg/day vs. S-Oxprenolol (20)
compound,measurement,setting,value
CC(C)NCC(O)COc1cccc2ccccc12 (centres unmarked) [propanolol],Δ body weight,"[1]; all mice, 10 mg/kg/d",-5.89 ± 0.42 g
same,Δ fat mass,"[1]; all mice, 10 mg/kg/d",-1.82 ± 0.25 g
same,Δ lean mass,"[1]; all mice, 10 mg/kg/d",-4.89 ± -0.26 g
same,Average Δ body weight,"[1]; all mice, 10 mg/kg/d",-127.6 ± 10.6 mg/day
same,Average Δ fat mass,"[1]; all mice, 10 mg/kg/d",-43.9 ± 5.5 mg/day
same,Δ body weight,"[1]; female mice, 10 mg/kg/d",-5.66 ± 0.66 g
same,Δ fat mass,"[1]; female mice, 10 mg/kg/d",-1.65 ± 0.44 g
same,Δ lean mass,"[1]; female mice, 10 mg/kg/d",-4.70 ± 0.37 g
same,Average Δ body weight,"[1]; female mice, 10 mg/kg/d",-111.3 ± 13.2 mg/day
same,Average Δ fat mass,"[1]; female mice, 10 mg/kg/d",-30.9 ± 8.3 mg/day
same,Average Δ lean mass,"[1]; female mice, 10 mg/kg/d",-91.2 ± 8.3 mg/day
same,Δ body weight,"[1]; male mice, 10 mg/kg/d",-6.11 ± 0.54 g
same,Δ fat mass,"[1]; male mice, 10 mg/kg/d",-1.99 ± 0.26 g
same,Δ lean mass,"[1]; male mice, 10 mg/kg/d",-5.06 ± 0.37 g
same,Average Δ body weight,"[1]; male mice, 10 mg/kg/d",-142.7 ± 15.9 mg/day
same,Average Δ fat mass,"[1]; male mice, 10 mg/kg/d",-51.9 ± 6.9 mg/day
same,Average Δ lean mass,"[1]; male mice, 10 mg/kg/d",-118.6 ± 10.6 mg/day
same,HR Progression from score 1 to score 2 (FIG. 17),[2]; 10 mg/kg/day vs. placebo,0.64
same,HR Progression from score 1 to score 3 (FIG. 19),[2]; 10 mg/kg/day vs. placebo,0.72
same,HR Progression from score 2 to score 3 (FIG. 18),[2]; 10 mg/kg/day vs. placebo,0.99
same,HR survival (FIG. 14),[3]; 10 mg/kg/day vs. placebo,0.73
same,HR survival (FIG. 16),[3]; 10 mg/kg/day vs. placebo,0.71
same,HR survival (FIG. 15),[3]; 10 mg/kg/day vs. placebo,0.59
same,BAT (brown adipose tissue),"[4]; all mice, 10 mg/kg/d",45.1 ± 2.9 mg
same,EDL (extensor digitorum longus),"[4]; all mice, 10 mg/kg/d",7.11 ± 0.37 mg
same,soleus,"[4]; all mice, 10 mg/kg/d",5.60 ± 0.28 mg
same,Heart,"[4]; all mice, 10 mg/kg/d",104.0 ± 3.2 mg
same,gastrocnemius,"[4]; all mice, 10 mg/kg/d",52.4 ± 3.3 mg
same,BAT (brown adipose tissue),"[4]; female mice, 10 mg/kg/d",41.2 ± 2.2 mg
same,EDL (extensor digitorum longus),"[4]; female mice, 10 mg/kg/d",6.21 ± 0.37 mg
same,soleus,"[4]; female mice, 10 mg/kg/d",5.57 ± 0.43 mg
same,Heart,"[4]; female mice, 10 mg/kg/d",93.8 ± 2.7 mg
same,gastrocnemius,"[4]; female mice, 10 mg/kg/d",40.6 ± 3.3 mg
same,BAT (brown adipose tissue),"[4]; male mice, 10 mg/kg/d",48.7 ± 5.1 mg
same,EDL (extensor digitorum longus),"[4]; male mice, 10 mg/kg/d",7.94 ± 0.55 mg
same,soleus,"[4]; male mice, 10 mg/kg/d",5.63 ± 0.38 mg
same,Heart,"[4]; male mice, 10 mg/kg/d",113.5 ± 4.6 mg
same,gastrocnemius,"[4]; male mice, 10 mg/kg/d",63.3 ± 3.6 mg
"C=CCOc1ccccc1OC[C@H](O)CNC(C)C [R-oxprenolol, (R)-1-(2-(allyloxy)phenoxy)-3-(isopropylamino)propan-2-ol]",Δ body weight,"[1]; all mice, 10 mg/kg/d",-6.36 ± 0.39 g
same,Δ fat mass,"[1]; all mice, 10 mg/kg/d",-1.71 ± 0.15 g
same,Δ lean mass,"[1]; all mice, 10 mg/kg/d",-5.11 ± 0.32 g
same,Average Δ body weight,"[1]; all mice, 10 mg/kg/d",-146.1 ± 11.1 mg/day
same,Average Δ fat mass,"[1]; all mice, 10 mg/kg/d",-38.3 ± 4.2 mg/day
same,Average Δ lean mass,"[1]; all mice, 10 mg/kg/d",-125.8 ± -12.7 mg/day
same,Δ body weight,"[1]; all mice, 20 mg/kg/d",-5.21 ± 0.39 g
same,Δ fat mass,"[1]; all mice, 20 mg/kg/d",-1.59 ± 0.15 g
same,Δ lean mass,"[1]; all mice, 20 mg/kg/d",-4.60 ± 0.28 g
same,Average Δ body weight,"[1]; all mice, 20 mg/kg/d",-111.0 ± 9.4 mg/day
same,Average Δ fat mass,"[1]; all mice, 20 mg/kg/d",-32.6 ± 3.0 mg/day
same,Average Δ lean mass,"[1]; all mice, 20 mg/kg/d",-96.6 ± 6.4 mg/day
same,Δ body weight,"[1]; female mice, 10 mg/kg/d",-6.19 ± 0.42 g
same,Δ fat mass,"[1]; female mice, 10 mg/kg/d",-1.87 ± 0.22 g
same,Δ lean mass,"[1]; female mice, 10 mg/kg/d",-3.76 ± 0.41 g
same,Average Δ body weight,"[1]; female mice, 10 mg/kg/d",-137.4 ± 15.5 mg/day
same,Average Δ fat mass,"[1]; female mice, 10 mg/kg/d",-41.4 ± 5.3 mg/day
same,Average Δ lean mass,"[1]; female mice, 10 mg/kg/d",-121.3 ± 25.7 mg/day
same,Δ body weight,"[1]; female mice, 20 mg/kg/d",-4.85 ± 0.55 g
same,Δ fat mass,"[1]; female mice, 20 mg/kg/d",-1.71 ± 0.26 g
same,Δ lean mass,"[1]; female mice, 20 mg/kg/d",-4.55 ± 0.37 g
same,Average Δ body weight,"[1]; female mice, 20 mg/kg/d",-105.2 ± 13.1 mg/day
same,Average Δ fat mass,"[1]; female mice, 20 mg/kg/d",-35.6 ± 5.0 mg/day
same,Average Δ lean mass,"[1]; female mice, 20 mg/kg/d",-85.2 ± 9.1 mg/day
same,Δ body weight,"[1]; male mice, 10 mg/kg/d",-6.515 ± 0.65 g
same,Δ fat mass,"[1]; male mice, 10 mg/kg/d",-1.57 ± 0.21 g
same,Δ lean mass,"[1]; male mice, 10 mg/kg/d",-5.55 ± 0.47 g
same,Average Δ body weight,"[1]; male mice, 10 mg/kg/d",-153.5 ± 16.1 mg/day
same,Average Δ fat mass,"[1]; male mice, 10 mg/kg/d",-37.4 ± 6.4 mg/day
same,Average Δ lean mass,"[1]; male mice, 10 mg/kg/d",-129.7 ± 9.9 mg/day
same,Δ body weight,"[1]; male mice, 20 mg/kg/d",-5.53 ± 0.57 g
same,Δ fat mass,"[1]; male mice, 20 mg/kg/d",-1.48 ± 0.16 g
same,Δ lean mass,"[1]; male mice, 20 mg/kg/d",-5.12 ± 0.38 g
same,Average Δ body weight,"[1]; male mice, 20 mg/kg/d",-116.0 ± 13.7 mg/day
same,Average Δ fat mass,"[1]; male mice, 20 mg/kg/d",-29.9 ± 3.5 mg/day
same,Average Δ lean mass,"[1]; male mice, 20 mg/kg/d",-106.4 ± 8.5 mg/day
same,HR Progression from score 1 to score 2 (FIG. 17),[2]; 10 mg/kg/day vs. placebo,0.47
same,HR Progression from score 1 to score 3 (FIG. 19),[2]; 10 mg/kg/day vs. placebo,0.60
same,HR Progression from score 2 to score 3 (FIG. 18),[2]; 10 mg/kg/day vs. placebo,1.04
same,HR Progression from score 1 to score 2 (FIG. 17),[2]; 20 mg/kg/day vs. placebo,0.54
same,HR Progression from score 1 to score 3 (FIG. 19),[2]; 20 mg/kg/day vs. placebo,0.63
same,HR Progression from score 2 to score 3 (FIG. 18),[2]; 20 mg/kg/day vs. placebo,0.74
same,HR survival (FIG. 14),[3]; 10 mg/kg/day vs. placebo,0.57
same,HR survival (FIG. 14),[3]; [5],1.32
same,HR survival (FIG. 14),[3]; 20 mg/kg/day vs. placebo,0.54
same,HR survival (FIG. 16),[3]; 10 mg/kg/day vs. placebo,0.60
same,HR survival (FIG. 16),[3]; [5],1.26
same,HR survival (FIG. 16),[3]; 20 mg/kg/day vs. placebo,0.41
same,HR survival (FIG. 15),[3]; 10 mg/kg/day vs. placebo,0.49
same,HR survival (FIG. 15),[3]; [5],1.24
same,HR survival (FIG. 15),[3]; 20 mg/kg/day vs. placebo,0.41
same,BAT (brown adipose tissue),"[4]; all mice, 10 mg/kg/d",44.5 ± 3.4 mg
same,EDL (extensor digitorum longus),"[4]; all mice, 10 mg/kg/d",6.53 ± 0.47 mg
same,soleus,"[4]; all mice, 10 mg/kg/d",4.49 ± 0.36 mg
same,Heart,"[4]; all mice, 10 mg/kg/d",101.2 ± 2.7 mg
same,gastrocnemius,"[4]; all mice, 10 mg/kg/d",50.8 ± 3.3 mg
same,BAT (brown adipose tissue),"[4]; all mice, 20 mg/kg/d",43.3 ± 4.1 mg
same,EDL (extensor digitorum longus),"[4]; all mice, 20 mg/kg/d",5.89 ± 0.31 mg
same,soleus,"[4]; all mice, 20 mg/kg/d",5.49 ± 0.34 mg
same,Heart,"[4]; all mice, 20 mg/kg/d",100.7 ± 3.8 mg
same,gastrocnemius,"[4]; all mice, 20 mg/kg/d",47.0 ± 2.6 mg
same,BAT (brown adipose tissue),"[4]; female mice, 10 mg/kg/d",42.1 ± 4.6 mg
same,EDL (extensor digitorum longus),"[4]; female mice, 10 mg/kg/d",6.45 ± 0.75 mg
same,soleus,"[4]; female mice, 10 mg/kg/d",4.23 ± 0.51 mg
same,Heart,"[4]; female mice, 10 mg/kg/d",94.4 ± 3.4 mg
same,gastrocnemius,"[4]; female mice, 10 mg/kg/d",47.5 ± 4.1 mg
same,BAT (brown adipose tissue),"[4]; female mice, 20 mg/kg/d",32.6 ± 1.9 mg
same,EDL (extensor digitorum longus),"[4]; female mice, 20 mg/kg/d",5.98 ± 0.47 mg
same,soleus,"[4]; female mice, 20 mg/kg/d",5.09 ± 0.52 mg
same,Heart,"[4]; female mice, 20 mg/kg/d",88.5 ± 4.6 mg
same,gastrocnemius,"[4]; female mice, 20 mg/kg/d",43.6 ± 4.2 mg
same,BAT (brown adipose tissue),"[4]; male mice, 10 mg/kg/d",46.7 ± 4.9 mg
same,EDL (extensor digitorum longus),"[4]; male mice, 10 mg/kg/d",6.59 ± 0.61 mg
same,soleus,"[4]; male mice, 10 mg/kg/d",4.74 ± 0.51 mg
same,Heart,"[4]; male mice, 10 mg/kg/d",107.4 ± 3.4 mg
same,gastrocnemius,"[4]; male mice, 10 mg/kg/d",53.8 ± 5.1 mg
same,BAT (brown adipose tissue),"[4]; male mice, 20 mg/kg/d",53.9 ± 6.8 mg
same,EDL (extensor digitorum longus),"[4]; male mice, 20 mg/kg/d",5.81 ± 0.42 mg
same,soleus,"[4]; male mice, 20 mg/kg/d",5.84 ± 0.45 mg
same,Heart,"[4]; male mice, 20 mg/kg/d",112.0 ± 4.1 mg
same,gastrocnemius,"[4]; male mice, 20 mg/kg/d",49.9 ± 3.0 mg
